≈ marks a conversion by molar mass, not a printed value.
Tests used:
Format in all cases: functional
[1] = tested on: Pseudomonas aeruginosa; assay: Antibacterial activity against mexCD-oprJ overexpressing Pseudomonas aeruginosa 164M1-84C harboring p26PAD1 plasmid containing ampD gene
[2] = tested on: Pseudomonas aeruginosa; assay: Increase in ampDh3 gene expression in Pseudomonas aeruginosa 164M1 by RT-PCR relative to wild-type
[3] = tested on: Pseudomonas aeruginosa; assay: Increase in ampDh2 gene expression in Pseudomonas aeruginosa 164M1-84C overexpressing mexCD-oprJ genes by RT-PCR relative to wild-type
[4] = tested on: Pseudomonas aeruginosa; assay: Antibacterial activity against mexCD-oprJ overexpressing Pseudomonas aeruginosa 164M1-94C harboring p26PAD1 plasmid containing ampD gene
[5] = tested on: Pseudomonas aeruginosa; assay: Antibacterial activity against Pseudomonas aeruginosa 164M1-94C overexpressing mexCD-oprJ genes
[6] = tested on: Pseudomonas aeruginosa; assay: Increase in ampD gene expression in Pseudomonas aeruginosa 164M1-84C overexpressing mexCD-oprJ genes by RT-PCR relative to wild-type
[7] = tested on: Pseudomonas aeruginosa; assay: Increase in ampDh3 gene expression in Pseudomonas aeruginosa 164M1-94C overexpressing mexCD-oprJ genes by RT-PCR relative to wild-type
[8] = tested on: Pseudomonas aeruginosa; assay: Increase in ampC gene expression in Pseudomonas aeruginosa 164M1-94C overexpressing mexCD-oprJ genes by RT-PCR relative to wild-type
[9] = tested on: Pseudomonas aeruginosa; assay: Increase in ampC gene expression in Pseudomonas aeruginosa 164M1-84C overexpressing mexCD-oprJ genes by RT-PCR relative to wild-type
[10] = tested on: Pseudomonas aeruginosa; assay: Increase in ampD gene expression in Pseudomonas aeruginosa 164M1 by RT-PCR relative to wild-type
[11] = tested on: Pseudomonas aeruginosa; assay: Increase in ampC gene expression in Pseudomonas aeruginosa 164M1 by RT-PCR relative to wild-type
[12] = tested on: Pseudomonas aeruginosa; assay: Increase in ampC gene expression in mexCD-oprJ overexpressing Pseudomonas aeruginosa 164M1-94C harboring p26PAD1 plasmid containing ampD gene by RT-PCR relative to wild-type
[13] = tested on: Pseudomonas aeruginosa; assay: Antibacterial activity against Pseudomonas aeruginosa 164M1 harboring p26PAD1 plasmid containing ampD gene
[14] = tested on: Pseudomonas aeruginosa; assay: Antibacterial activity against Pseudomonas aeruginosa 164M1
[15] = tested on: Pseudomonas aeruginosa; assay: Antibacterial activity against Pseudomonas aeruginosa 164M1-84C overexpressing mexCD-oprJ genes
[16] = tested on: Pseudomonas aeruginosa; assay: Increase in ampDh2 gene expression in Pseudomonas aeruginosa 164M1 by RT-PCR relative to wild-type
[17] = tested on: Pseudomonas aeruginosa; assay: Antibacterial activity against Pseudomonas aeruginosa 164
[18] = tested on: Pseudomonas aeruginosa; assay: Increase in ampDh3 gene expression in Pseudomonas aeruginosa 164M1-84C overexpressing mexCD-oprJ genes by RT-PCR relative to wild-type
[19] = tested on: Pseudomonas aeruginosa; assay: Increase in ampC gene expression in Pseudomonas aeruginosa 164M1 harboring p26PAD1 plasmid containing ampD gene by RT-PCR relative to wild-type
[20] = tested on: Pseudomonas aeruginosa; assay: Increase in ampDh2 gene expression in Pseudomonas aeruginosa 164M1-94C overexpressing mexCD-oprJ genes by RT-PCR relative to wild-type
[21] = tested on: Pseudomonas aeruginosa; assay: Increase in ampD gene expression in Pseudomonas aeruginosa 164M1-94C overexpressing mexCD-oprJ genes by RT-PCR relative to wild-type

CC(C)(O/N=C(\C(=O)N[C@@H]1C(=O)N2C(C(=O)[O-])=C(C[n+]3ccccc3)CS[C@H]12)c1csc(N)n1)C(=O)O [CEFTAZIDIME]
MIC [1]: 2 µg/mL (≈ 3.66 µM)
fold change (FC) [2]: 2.1
fold change (FC) [3]: 1.5
MIC [4]: 2 µg/mL (≈ 3.66 µM)
MIC [5]: 48 µg/mL (≈ 87.8 µM)
fold change (FC) [6]: 1.2
fold change (FC) [7]: 3.1
fold change (FC) [8]: 1165
fold change (FC) [9]: 1324
fold change (FC) [10]: 1.3
fold change (FC) [11]: 99
fold change (FC) [12]: 0.91
MIC [13]: 4 µg/mL (≈ 7.32 µM)
MIC [14]: 96 µg/mL (≈ 176 µM)
MIC [15]: 48 µg/mL (≈ 87.8 µM)
fold change (FC) [16]: 2.6
MIC [17]: 2 µg/mL (≈ 3.66 µM)
fold change (FC) [18]: 1.6
fold change (FC) [19]: 1.1
fold change (FC) [20]: 2.6
fold change (FC) [21]: 1.1

— ChEMBL document CHEMBL1155152, “Increased expression of ampC in Pseudomonas aeruginosa mutants selected with ciprofloxacin” (2007)
